Test results taken from paper PMC9936921 (Oncogene, 2018).
Like-named read-outs stand apart in the source and are kept apart here. One block for each molecule: values may come before it.

Assays:
Test in all cases: SPR
Format in all cases: binding
CD99 [1] = target: T1, CD99 (Homo sapiens, UniProt P14209)
T1 sequence (P14209 23-185): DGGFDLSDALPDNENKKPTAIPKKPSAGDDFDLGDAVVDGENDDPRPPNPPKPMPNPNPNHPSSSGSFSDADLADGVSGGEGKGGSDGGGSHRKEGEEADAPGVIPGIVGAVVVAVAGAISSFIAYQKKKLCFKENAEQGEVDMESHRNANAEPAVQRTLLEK

CD99 [2] = target: T1, CD99; remark: listed apart in the source
CD99 [3] = target: CD99 (Homo sapiens, UniProt P14209); remark: listed apart in the source

Kd (CD99 [1]): 5.3 ± 3.2 µM
Structure (SMILES): Nc1nc(Cl)nc2c1ncn2[C@@H]1O[C@H](CO)[C@@H](O)[C@@H]1F [clofarabine]

Kd (CD99 [2]): 3.7 µM
Structure (SMILES): Nc1nc(Cl)nc2c1ncn2[C@@H]1O[C@H](COP(=O)(O)OP(=O)(O)OP(=O)(O)O)[C@@H](O)[C@@H]1F [clofarabine-5’-triphosphate]

Structure (SMILES): Nc1nc(Cl)nc2c1ncn2[C@H]1C[C@H](O)[C@@H](CO)O1 [cladribine]
Kd (CD99 [3]): 3.8 ± 3.3 µM
